According to ChEMBL document CHEMBL4396916, “Novel potent substituted 4-amino-2-thiopyrimidines as dual VEGFR-2 and BRAF kinase inhibitors” (Eur J Med Chem, 2019):

How the values were obtained:
BT-549 = experiment: Growth inhibition of human BT549 cells at 10 uM incubated for 48 hrs by sulforhodamine B assay relative to control; assay type: functional; details: BT-549, 48 h, read-out: GI
[1] = target: RAF proto-oncogene serine/threonine-protein kinase (Homo sapiens, UniProt P04049); experiment: Inhibition of RAF1 (unknown origin)
UACC-257 = experiment: Growth inhibition of human UACC257 cells at 10 uM incubated for 48 hrs by sulforhodamine B assay relative to control; assay type: functional; details: UACC-257, 48 h, read-out: GI
OVCAR-3 = experiment: Growth inhibition of human OVCAR3 cells at 10 uM incubated for 48 hrs by sulforhodamine B assay relative to control; assay type: functional; details: OVCAR-3, 48 h, read-out: GI
NCI-H226 = experiment: Growth inhibition of human NCI-H226 cells at 10 uM incubated for 48 hrs by sulforhodamine B assay relative to control; assay type: functional; details: NCI-H226, 48 h, read-out: GI
UACC-62 = experiment: Growth inhibition of human UACC62 cells at 10 uM incubated for 48 hrs by sulforhodamine B assay relative to control; assay type: functional; details: UACC-62, 48 h, read-out: GI
CCRF-CEM = experiment: Growth inhibition of human CCRF-CEM cells at 10 uM incubated for 48 hrs by sulforhodamine B assay relative to control; assay type: functional; details: read-out: GI
MDA-MB-468 = experiment: Growth inhibition of human MDA-MB-468 cells at 10 uM incubated for 48 hrs by sulforhodamine B assay relative to control; assay type: functional; details: MDA-MB-468, 48 h, read-out: GI
MCF7 [2] = experiment: Inhibition of VEGFR2 level in human MCF7 cells at 10 uM measured after 48 hrs by ELISA relative to control; assay type: functional; details: MCF7, 48 h
OVCAR-8 = experiment: Growth inhibition of human OVCAR8 cells at 10 uM incubated for 48 hrs by sulforhodamine B assay relative to control; assay type: functional; details: OVCAR-8, 48 h, read-out: GI
SNB-19 = experiment: Growth inhibition of human SNB19 cells at 10 uM incubated for 48 hrs by sulforhodamine B assay relative to control; assay type: functional; details: SNB-19, 48 h, read-out: GI
T47D [3] = experiment: Growth inhibition of human T47D cells at 10 uM incubated for 48 hrs by sulforhodamine B assay relative to control; assay type: functional; details: read-out: GI
SK-MEL-28 = experiment: Growth inhibition of human SK-MEL-28 cells at 10 uM incubated for 48 hrs by sulforhodamine B assay relative to control; assay type: functional; details: SK-MEL-28, 48 h, read-out: GI
SK-MEL-5 = experiment: Growth inhibition of human SK-MEL-5 cells at 10 uM incubated for 48 hrs by sulforhodamine B assay relative to control; assay type: functional; details: SK-MEL-5, 48 h, read-out: GI
Angiopoietin-1 receptor = Angiopoietin-1 receptor (Homo sapiens, UniProt Q02763); experiment: Inhibition of TIE2 (unknown origin)
NCI/ADR-RES = experiment: Growth inhibition of human NCI/ADR-RES cells at 10 uM incubated for 48 hrs by sulforhodamine B assay relative to control; assay type: functional; details: read-out: GI
Malme-3M = experiment: Growth inhibition of human MALME-3M cells at 10 uM incubated for 48 hrs by sulforhodamine B assay relative to control; assay type: functional; details: read-out: GI
SF-268 = experiment: Growth inhibition of human SF268 cells at 10 uM incubated for 48 hrs by sulforhodamine B assay relative to control; assay type: functional; details: SF-268, 48 h, read-out: GI
MCF7 [4] = experiment: Growth inhibition of human MCF7 cells at 10 uM incubated for 48 hrs by sulforhodamine B assay relative to control; assay type: functional; details: MCF7, 48 h, read-out: GI
MDA-MB-435 = experiment: Growth inhibition of human MDA-MB-435 cells at 10 uM incubated for 48 hrs by sulforhodamine B assay relative to control; assay type: functional; details: MDA-MB-435, 48 h, read-out: GI
U-251 = experiment: Growth inhibition of human U251 cells at 10 uM incubated for 48 hrs by sulforhodamine B assay relative to control; assay type: functional; details: U-251, 48 h, read-out: GI
PC-3 = experiment: Growth inhibition of human PC3 cells at 10 uM incubated for 48 hrs by sulforhodamine B assay relative to control; assay type: functional; details: PC-3, 48 h, read-out: GI
OVCAR-4 = experiment: Growth inhibition of human OVCAR4 cells at 10 uM incubated for 48 hrs by sulforhodamine B assay relative to control; assay type: functional; details: OVCAR-4, 48 h, read-out: GI
NCI-H522 = experiment: Growth inhibition of human NCI-H522 cells at 10 uM incubated for 48 hrs by sulforhodamine B assay relative to control; assay type: functional; details: NCI-H522, 48 h, read-out: GI
MCF7 [5] = experiment: Cytotoxicity against human MCF7 cells expressing VEGFR2 and wild type BRAF measured after 48 hrs by sulforhodamine B assay; assay type: functional, cell-based; details: MCF7, 48 h
[6] = target: Platelet-derived growth factor receptor beta (Homo sapiens, UniProt P09619); experiment: Inhibition of PDGFR beta (unknown origin)
MDA-MB-231 = experiment: Growth inhibition of human MDA-MB-231 cells at 10 uM incubated for 48 hrs by sulforhodamine B assay relative to control; assay type: functional; details: MDA-MB-231, 48 h, read-out: GI
DU-145 = experiment: Growth inhibition of human DU145 cells at 10 uM incubated for 48 hrs by sulforhodamine B assay relative to control; assay type: functional; details: DU-145, 48 h, read-out: GI
[7] = target: Vascular endothelial growth factor receptor 2 (Homo sapiens, UniProt P35968); experiment: Inhibition of human N-terminal GST tagged VEGFR-2 expressed in baculovirus infected Sf9 cells using poly (Glu,Tyr) 4:1 as substrate in presence of ATP by Kinase-Glo luminescence assay
SK-MEL-2 = experiment: Growth inhibition of human SK-MEL-2 cells at 10 uM incubated for 48 hrs by sulforhodamine B assay relative to control; assay type: functional; details: SK-MEL-2, 48 h, read-out: GI
LOX IMVI = experiment: Growth inhibition of human LOXIMVI cells at 10 uM incubated for 48 hrs by sulforhodamine B assay relative to control; assay type: functional; details: read-out: GI
RPMI-8226 = experiment: Growth inhibition of human RPMI8226 cells at 10 uM incubated for 48 hrs by sulforhodamine B assay relative to control; assay type: functional; details: RPMI-8226, 48 h, read-out: GI
EKVX = experiment: Growth inhibition of human EKVX cells at 10 uM incubated for 48 hrs by sulforhodamine B assay relative to control; assay type: functional; details: read-out: GI
SN12C = experiment: Growth inhibition of human SN12C cells at 10 uM incubated for 48 hrs by sulforhodamine B assay relative to control; assay type: functional; details: read-out: GI
T47D [8] = experiment: Cytotoxicity against human T47D cells expressing wild type BRAF measured after 48 hrs by sulforhodamine B assay; assay type: functional, cell-based
[9] = target: Fibroblast growth factor receptor 1 (Homo sapiens, UniProt P11362); experiment: Inhibition of FGFR1 (unknown origin)
CAKI-1 = experiment: Growth inhibition of human Caki1 cells at 10 uM incubated for 48 hrs by sulforhodamine B assay relative to control; assay type: functional; details: CAKI-1, 48 h, read-out: GI
ACHN = experiment: Growth inhibition of human ACHN cells at 10 uM incubated for 48 hrs by sulforhodamine B assay relative to control; assay type: functional; details: read-out: GI

Platelet-derived growth factor receptor beta, sequence (P09619 whole entry): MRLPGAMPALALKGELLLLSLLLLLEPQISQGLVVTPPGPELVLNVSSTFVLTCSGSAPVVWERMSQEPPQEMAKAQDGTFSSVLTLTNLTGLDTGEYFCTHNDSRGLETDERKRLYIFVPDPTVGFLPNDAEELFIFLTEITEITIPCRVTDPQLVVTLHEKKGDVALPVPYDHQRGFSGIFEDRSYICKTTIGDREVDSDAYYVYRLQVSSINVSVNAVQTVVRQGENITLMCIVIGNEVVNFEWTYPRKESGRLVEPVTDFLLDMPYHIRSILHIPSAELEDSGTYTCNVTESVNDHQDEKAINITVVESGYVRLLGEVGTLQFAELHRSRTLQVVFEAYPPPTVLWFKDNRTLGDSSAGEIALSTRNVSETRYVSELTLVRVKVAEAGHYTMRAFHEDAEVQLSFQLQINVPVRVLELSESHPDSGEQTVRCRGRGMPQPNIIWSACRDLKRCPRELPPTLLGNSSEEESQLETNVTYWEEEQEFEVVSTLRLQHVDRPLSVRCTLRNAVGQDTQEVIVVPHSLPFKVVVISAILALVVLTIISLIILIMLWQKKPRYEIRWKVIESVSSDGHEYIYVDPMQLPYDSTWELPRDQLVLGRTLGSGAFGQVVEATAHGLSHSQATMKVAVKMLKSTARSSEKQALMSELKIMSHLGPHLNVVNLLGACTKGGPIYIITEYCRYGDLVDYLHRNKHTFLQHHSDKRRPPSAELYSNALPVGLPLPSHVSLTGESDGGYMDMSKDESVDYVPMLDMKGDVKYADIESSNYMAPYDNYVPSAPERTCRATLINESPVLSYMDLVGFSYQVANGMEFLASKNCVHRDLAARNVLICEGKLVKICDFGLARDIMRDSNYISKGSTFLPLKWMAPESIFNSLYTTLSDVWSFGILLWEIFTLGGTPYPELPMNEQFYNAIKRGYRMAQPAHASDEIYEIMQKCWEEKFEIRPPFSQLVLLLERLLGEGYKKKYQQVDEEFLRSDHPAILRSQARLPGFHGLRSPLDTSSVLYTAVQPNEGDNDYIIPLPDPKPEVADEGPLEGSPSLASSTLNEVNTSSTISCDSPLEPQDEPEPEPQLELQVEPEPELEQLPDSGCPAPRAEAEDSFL
RAF proto-oncogene serine/threonine-protein kinase, sequence (P04049 whole entry): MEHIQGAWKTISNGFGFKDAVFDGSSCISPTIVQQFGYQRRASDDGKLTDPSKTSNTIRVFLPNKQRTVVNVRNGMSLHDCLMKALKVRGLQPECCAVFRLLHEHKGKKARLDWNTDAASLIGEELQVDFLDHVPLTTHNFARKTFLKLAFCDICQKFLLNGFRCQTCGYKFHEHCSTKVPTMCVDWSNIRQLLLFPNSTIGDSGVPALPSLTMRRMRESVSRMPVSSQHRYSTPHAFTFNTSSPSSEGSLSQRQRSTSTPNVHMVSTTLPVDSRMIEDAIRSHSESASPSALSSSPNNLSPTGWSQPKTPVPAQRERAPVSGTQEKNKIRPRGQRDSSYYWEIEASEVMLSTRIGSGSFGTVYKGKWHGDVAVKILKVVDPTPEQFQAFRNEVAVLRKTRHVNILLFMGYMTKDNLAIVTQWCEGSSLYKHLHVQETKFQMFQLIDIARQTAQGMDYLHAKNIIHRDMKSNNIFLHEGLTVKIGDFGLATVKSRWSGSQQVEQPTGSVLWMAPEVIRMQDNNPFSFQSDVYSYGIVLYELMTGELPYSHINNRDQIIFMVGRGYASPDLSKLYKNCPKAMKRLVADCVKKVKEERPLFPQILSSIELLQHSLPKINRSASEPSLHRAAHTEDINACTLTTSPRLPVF
Fibroblast growth factor receptor 1, sequence (P11362 whole entry): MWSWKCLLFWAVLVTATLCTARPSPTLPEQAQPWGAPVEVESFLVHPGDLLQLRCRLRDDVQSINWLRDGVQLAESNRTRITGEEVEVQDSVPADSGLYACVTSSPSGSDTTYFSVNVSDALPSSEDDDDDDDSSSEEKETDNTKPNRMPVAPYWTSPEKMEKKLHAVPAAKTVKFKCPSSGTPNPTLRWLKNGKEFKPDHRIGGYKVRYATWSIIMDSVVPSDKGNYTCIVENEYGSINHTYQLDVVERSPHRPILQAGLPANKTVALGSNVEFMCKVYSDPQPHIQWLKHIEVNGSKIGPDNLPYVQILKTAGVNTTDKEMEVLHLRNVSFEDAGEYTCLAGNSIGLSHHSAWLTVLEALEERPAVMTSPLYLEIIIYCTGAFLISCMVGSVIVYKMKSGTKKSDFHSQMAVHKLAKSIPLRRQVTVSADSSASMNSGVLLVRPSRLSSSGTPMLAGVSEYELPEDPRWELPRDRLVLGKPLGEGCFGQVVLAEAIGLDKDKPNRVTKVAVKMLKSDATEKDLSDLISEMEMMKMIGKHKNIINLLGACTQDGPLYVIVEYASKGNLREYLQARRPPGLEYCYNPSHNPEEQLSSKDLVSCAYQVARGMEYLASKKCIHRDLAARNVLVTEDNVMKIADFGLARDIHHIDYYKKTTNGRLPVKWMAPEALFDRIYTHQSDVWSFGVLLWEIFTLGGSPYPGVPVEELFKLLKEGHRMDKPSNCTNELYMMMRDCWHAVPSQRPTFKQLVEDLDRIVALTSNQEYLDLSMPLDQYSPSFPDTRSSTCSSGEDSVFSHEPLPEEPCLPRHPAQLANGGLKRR
Vascular endothelial growth factor receptor 2, sequence (P35968 whole entry): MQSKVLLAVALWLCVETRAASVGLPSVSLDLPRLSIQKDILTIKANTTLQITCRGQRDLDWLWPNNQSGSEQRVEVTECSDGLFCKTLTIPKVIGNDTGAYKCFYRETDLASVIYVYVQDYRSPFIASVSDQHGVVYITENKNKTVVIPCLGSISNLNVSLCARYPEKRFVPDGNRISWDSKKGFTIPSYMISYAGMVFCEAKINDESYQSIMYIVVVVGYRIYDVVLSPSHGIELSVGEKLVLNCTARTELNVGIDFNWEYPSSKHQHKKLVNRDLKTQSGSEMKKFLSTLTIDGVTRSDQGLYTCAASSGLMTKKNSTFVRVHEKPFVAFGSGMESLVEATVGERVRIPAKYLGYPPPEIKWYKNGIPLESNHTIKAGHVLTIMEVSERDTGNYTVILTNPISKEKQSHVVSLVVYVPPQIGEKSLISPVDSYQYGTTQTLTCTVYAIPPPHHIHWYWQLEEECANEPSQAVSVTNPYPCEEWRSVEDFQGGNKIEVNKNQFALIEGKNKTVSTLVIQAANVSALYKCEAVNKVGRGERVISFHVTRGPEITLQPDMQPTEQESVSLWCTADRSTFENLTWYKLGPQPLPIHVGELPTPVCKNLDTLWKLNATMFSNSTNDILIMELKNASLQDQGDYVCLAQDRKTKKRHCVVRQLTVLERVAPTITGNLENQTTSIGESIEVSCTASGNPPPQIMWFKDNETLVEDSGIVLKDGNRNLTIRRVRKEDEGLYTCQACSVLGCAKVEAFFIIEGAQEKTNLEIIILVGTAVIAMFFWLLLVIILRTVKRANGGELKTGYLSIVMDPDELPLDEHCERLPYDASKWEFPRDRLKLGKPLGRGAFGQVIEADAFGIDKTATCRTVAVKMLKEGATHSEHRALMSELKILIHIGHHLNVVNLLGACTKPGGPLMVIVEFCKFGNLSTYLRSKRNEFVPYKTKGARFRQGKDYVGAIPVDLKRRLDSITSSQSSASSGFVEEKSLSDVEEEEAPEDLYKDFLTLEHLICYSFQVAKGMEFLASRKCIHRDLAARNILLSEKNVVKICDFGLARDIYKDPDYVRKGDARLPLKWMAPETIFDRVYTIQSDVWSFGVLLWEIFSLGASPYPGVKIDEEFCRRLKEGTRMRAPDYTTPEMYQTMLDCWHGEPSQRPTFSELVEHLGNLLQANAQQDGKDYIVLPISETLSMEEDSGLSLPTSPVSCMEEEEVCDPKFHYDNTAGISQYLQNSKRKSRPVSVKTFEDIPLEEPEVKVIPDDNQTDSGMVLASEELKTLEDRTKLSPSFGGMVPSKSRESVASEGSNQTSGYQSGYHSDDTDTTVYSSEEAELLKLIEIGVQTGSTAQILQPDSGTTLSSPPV
Angiopoietin-1 receptor, sequence (Q02763 whole entry): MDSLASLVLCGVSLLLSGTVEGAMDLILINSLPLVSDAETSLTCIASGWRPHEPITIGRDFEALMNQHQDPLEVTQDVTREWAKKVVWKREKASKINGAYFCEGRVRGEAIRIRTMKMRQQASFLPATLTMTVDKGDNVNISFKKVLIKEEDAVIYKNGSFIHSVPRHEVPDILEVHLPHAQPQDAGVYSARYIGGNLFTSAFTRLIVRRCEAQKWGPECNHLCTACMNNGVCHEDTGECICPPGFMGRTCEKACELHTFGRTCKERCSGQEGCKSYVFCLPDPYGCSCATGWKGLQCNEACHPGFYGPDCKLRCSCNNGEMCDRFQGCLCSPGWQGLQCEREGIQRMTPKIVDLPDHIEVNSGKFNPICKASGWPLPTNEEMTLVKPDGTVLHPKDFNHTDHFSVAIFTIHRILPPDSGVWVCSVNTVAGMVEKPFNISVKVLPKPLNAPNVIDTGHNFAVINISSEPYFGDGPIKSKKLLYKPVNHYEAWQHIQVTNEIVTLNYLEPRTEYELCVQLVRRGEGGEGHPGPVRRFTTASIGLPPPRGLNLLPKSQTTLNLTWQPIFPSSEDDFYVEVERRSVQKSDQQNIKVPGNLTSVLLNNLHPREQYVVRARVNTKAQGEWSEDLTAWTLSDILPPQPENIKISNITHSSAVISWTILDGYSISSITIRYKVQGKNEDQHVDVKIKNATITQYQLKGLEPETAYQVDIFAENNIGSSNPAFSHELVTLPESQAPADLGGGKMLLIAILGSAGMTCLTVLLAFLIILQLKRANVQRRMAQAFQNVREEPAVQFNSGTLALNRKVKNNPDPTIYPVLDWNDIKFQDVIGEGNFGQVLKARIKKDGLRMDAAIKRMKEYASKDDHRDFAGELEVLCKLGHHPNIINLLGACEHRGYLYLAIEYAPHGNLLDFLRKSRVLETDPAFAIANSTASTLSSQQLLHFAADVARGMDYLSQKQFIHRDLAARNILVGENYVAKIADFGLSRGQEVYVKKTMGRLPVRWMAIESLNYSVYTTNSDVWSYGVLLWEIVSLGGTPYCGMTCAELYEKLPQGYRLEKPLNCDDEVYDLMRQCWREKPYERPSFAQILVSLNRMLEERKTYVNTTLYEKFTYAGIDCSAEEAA

Compound | inhibition of growth at 10 µM (BT-549) | IC50 [1] | inhibition of growth at 10 µM (UACC-257) | inhibition of growth at 10 µM (OVCAR-3) | inhibition of growth at 10 µM (NCI-H226) | inhibition of growth at 10 µM (UACC-62) | inhibition of growth at 10 µM (CCRF-CEM) | inhibition of growth at 10 µM (MDA-MB-468) | inhibition at 10 µM (MCF7 [2]) | inhibition of growth at 10 µM (OVCAR-8) | inhibition of growth at 10 µM (SNB-19) | inhibition of growth at 10 µM (T47D [3]) | inhibition of growth at 10 µM (SK-MEL-28) | inhibition of growth at 10 µM (SK-MEL-5) | IC50 (Angiopoietin-1 receptor) | inhibition of growth at 10 µM (NCI/ADR-RES) | inhibition of growth at 10 µM (Malme-3M) | inhibition of growth at 10 µM (SF-268) | inhibition of growth at 10 µM (MCF7 [4]) | inhibition of growth at 10 µM (MDA-MB-435) | other results
CCOC(=O)c1ccc(Nc2ccnc(SCC(=O)c3ccc(C#N)cc3)n2)cc1 | 50% | 410 nM | 22% | 21% | 38% | 61% | 82% | 52% | 84% | 77% | 10% | 90% | 19% | 62% | 1390 nM | 58% | 19% | 22% | 33% | 32% | inhibition of growth at 10 µM (U-251): 15%; inhibition of growth at 10 µM (PC-3): 60%; inhibition of growth at 10 µM (OVCAR-4): 35%; inhibition of growth at 10 µM (NCI-H522): 73%; IC50 (MCF7 [5]): 13000 nM; IC50 [6]: 390 nM; inhibition of growth at 10 µM (MDA-MB-231): 19%; inhibition of growth at 10 µM (DU-145): 21%; IC50 [7]: 170 nM; inhibition of growth at 10 µM (SK-MEL-2): 29%; inhibition of growth at 10 µM (LOX IMVI): 20%; inhibition of growth at 10 µM (RPMI-8226): 80%; inhibition of growth at 10 µM (EKVX): 26%; inhibition of growth at 10 µM (SN12C): 26%; IC50 (T47D [8]): 2180 nM; IC50 [9]: 280 nM; inhibition of growth at 10 µM (CAKI-1): 43%; inhibition of growth at 10 µM (ACHN): 20%
O=C(CSc1nccc(Nc2ccc(N3CCOCC3)cc2)n1)c1ccc(F)cc1 | 31% | 130 nM | 19% | 18% | 45% | 28% | 19% | 38% | 33% | 62% | 37% | 34% | 19% | 37% | 480 nM | 26% | 29% | 35% | 31% | 16% | inhibition of growth at 10 µM (U-251): 16%; inhibition of growth at 10 µM (PC-3): 27%; inhibition of growth at 10 µM (OVCAR-4): 57%; inhibition of growth at 10 µM (NCI-H522): 49%; IC50 (MCF7 [5]): 26900 nM; IC50 [6]: 150 nM; inhibition of growth at 10 µM (MDA-MB-231): 22%; inhibition of growth at 10 µM (DU-145): 16%; IC50 [7]: 260 nM; inhibition of growth at 10 µM (SK-MEL-2): 10%; inhibition of growth at 10 µM (LOX IMVI): 15%; inhibition of growth at 10 µM (RPMI-8226): 21%; inhibition of growth at 10 µM (EKVX): 23%; inhibition of growth at 10 µM (SN12C): 20%; IC50 (T47D [8]): 14400 nM; IC50 [9]: 130 nM; inhibition of growth at 10 µM (CAKI-1): 41%; inhibition of growth at 10 µM (ACHN): 24%
